The assay relates to human embryonic stem cells (H9, H7) on MATRIGEL
In words: Real-time PCR of definitive endoderm markers, DE protocol on […] or fibronectin (feeder-free). In kind it is cell-based. The note with it: for expression of definitive endoderm markers: with 50 ng/ml of AA, 20 ng/ml Wnt-3A or 100 nM GSK-3B inhibitor IX. As to the method:
Real-time PCR amplification and quantitative analysis.
Final data were expressed relative to a calibrator sample.
Differentiation of embryonic stem cells to definitive endoderm was carried out as previously described in Nature Biotechnology 23, 1534-1541 (December 2005). […] In all subsequent examples unless otherwise noted, this treatment regimen will be referred to as the definite endoderm (DE) protocol. In parallel, H9, H7, or H1 cells cultured on MEF feeders were also exposed to the same DE protocol outlined above.
At day 5, the cultures were analyzed by FACS for CXCR4, E-cadherin, CD9, CD99, and N-cadherin (CD56) expression and by real time PCR for SOX-17, SOX-7, Alpha-fetal protein (AFP), CXCR4, Brychyury (Bry), gooscecoid (GSC), HNF-3 beta, and GATA4. AFP and SOX-7 are regarded as visceral endoderm markers while GATA4, HNF-3beta and SOX-17 represent definite endoderm markers and GSC, Bry, and CXCR4 represent markers of primitive streak.
In some of the cultures 20 ng/ml Wnt-3a (Catalog #1324-WN-002, R&D Systems, MN), 20 ng/ml Wnt-5a (Catalog #654-WN-010, R&D Systems, MN), 25 ng/ml Wnt-7a (Catalog #3008-WN-025, R&D Systems, MN), or 25 ng/ml Wnt-5b (Catalog #3006-WN-025, R&D Systems, MN) was added throughout the five day treatment. FIG. 24 depicts phase contrast images of H9P46 definitive endoderm culture in the presence of high concentration of (a) AA or (b) AA+20 ng/ml Wnt-3a. FIG. 25 depicts the expression of CXCR4 by FACS at day 5 for H7P44, and H9P46 lines cultured on […] (1:30 dilution) and exposed to the DE protocol+Wnt-3a (FIG. 25, panels b and d) and −Wnt-3a (FIG. 25, panels a and c).
Control cultures were not treated with Wnt-3a. FIG. 27, panel a depicts the expression of CXCR4 by FACS at day 5 in the absence of Wnt-3a, b) 10 ng/ml Wnt-3a, c) 20 ng/ml Wnt-3a and d) 50 ng/ml Wnt-3a. In the absence of Wnt-3a the expression of CXCR4 was very low. […] Real-time PCR results (FIG. 28, panel a) also confirm this finding.
In a separate study, H9 p52 cells were plated on 1:30 low growth factor […]™. For the first 2 days of the DE protocol a range of Wnt3A doses was used: 10 ng/ml, 5 ng/ml and 1 ng/ml. […] The number of cells at the end of the experiment is noted in FIG. 28, panel c.
In order to confirm that the effect of Wnt-3a was through the Wnt pathway, a GSK-3 inhibitor was used to activate the downstream targets of Wnt, such as beta catenin. […] FIG. 29, panel a depicts the expression of CXCR4 by FACS at day 5 in the absence of Wnt-3a or GSK-3B inhibitor, b) +20 ng/ml Wnt-3a, c) +1000 nM GSK-3B inhibitor IX, d) +500 nM GSK-3B inhibitor IX, e) +100 nM GSK-3B inhibitor IX, f) +10 nM GSK-3B inhibitor IX, g) +100 nM GSK-3B inhibitor IX for days 1-2, and h) +10 nM GSK-3B inhibitor IX for days 1-2.
FIG. 31 panels a-d is for H9P49 cells and panels e-f is for H1P46 cells.
Results are expressed as fold increase over untreated cells. […] Results are expressed as fold increase over untreated cells.
H9P55 cells were grown and differentiated on human fibronectin or regular growth factor […]™ (BD Biosciences). lml of DMEM/F12 (Invitrogen/GIBCO) containing 1 ug/ml of human fibronectin (R&D systems, MN) was added to each well of 6 well tissue culture treated dish. Alternatively, regular growth factor […]™ was diluted 1:10 in DMEM/F12 and 1 ml of diluted […]™ was added to each well of 6 well tissue culture treated dish. Cells were passed with collagenase. […] Real-time PCR results (FIG. 39) confirm that formation of definitive endoderm was equivalent on fibronectin and […]™ coated plates.
To determine if the addition of Wnt-3a was causing the increase in differentiation, an inhibitor of Wnt-3 signaling was added to the cultures. […] H9 cells were cultured on plates coated with Growth Factor Reduced […] at a 1:30 dilution. The plates were coated with […] for 1 hr at room temperature. […]

As for `O=C1Nc2cc(Br)ccc2/C1=C1/Nc2ccccc2/C1=N\O` [GSK-3B inhibitor IX, reference compound], the “expression of definitive endoderm markers” value (H9P49) is “robust expression”.
For the compound Wnt-3a, the “definitive endoderm markers (real-time PCR)” value (H7 and H9, low serum+AA+/−Wnt ligands, 5 days) is “significant upregulation”. For the same compound, the “expression of definitive endoderm markers” value (H9P49) is listed as “robust expression”. The “Wnt3a dose sufficient to reach optimal cell expansion and definitive endoderm differentiation” value (H9 p52, for 2 days) was found to be 10 ng/mL.
For the compound “Activin A: a member of the TGFβ superfamily; R&D Systems; Group 2 = Activin A (100 ng/ml)”, the “outcome of lower doses of activin A” value (H9P49, with Wnt-3a or GSK-3B inhibitor IX) was “formation of extraembryonic endoderm”.

The values are drawn from patent US20100255580A1, “Differentiation of Human Embryonic Stem Cells” (LIFESCCAN, INC., priority 2007, published 2010).
